In publication PMC9286291, “A new adenine nucleotide transporter located in the ER is essential for maintaining the growth of Toxoplasma gondii” (PLoS Pathogens, 2022):

Legend:
PfANT = biological target: T1, PfANT (Plasmodium falciparum, UniProt Q8IIM9); assay: inhibition of [α-32P]ATP uptake into intact E. coli cells; type: cell-based; settings: 25 nM [α-32P]ATP, unlabelled competitor at 100-fold concentration, 15 min, 30 °C, 50 mM potassium phosphate pH 7.0
T1 construct: gene PF3D7_1113300; expressed in the plasma membrane of intact IPTG-induced E. coli from an encoding plasmid
T1 sequence (Q8IIM9 1-343): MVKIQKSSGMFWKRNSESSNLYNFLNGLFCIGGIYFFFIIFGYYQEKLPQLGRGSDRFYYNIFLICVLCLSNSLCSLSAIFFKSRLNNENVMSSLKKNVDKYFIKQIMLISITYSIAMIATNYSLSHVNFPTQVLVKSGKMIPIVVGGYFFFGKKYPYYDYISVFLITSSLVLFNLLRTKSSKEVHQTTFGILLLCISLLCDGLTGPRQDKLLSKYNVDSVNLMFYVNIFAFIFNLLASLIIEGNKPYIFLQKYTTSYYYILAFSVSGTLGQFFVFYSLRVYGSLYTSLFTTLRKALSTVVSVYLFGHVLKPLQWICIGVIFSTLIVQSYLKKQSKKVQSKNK
Excerpt: inhibition of [α-32P]ATP uptake into intact E. coli cells on PfANT

TgANT = biological target: T2, TgANT (Toxoplasma gondii, UniProt A0A7J6KCX5); assay: as above; type: cell-based; settings: 25 nM [α-32P]ATP, unlabelled competitor at 100-fold concentration, 15 min, 30 °C, 50 mM potassium phosphate pH 7.0
T2 construct: gene TGRH88_003770; codon-optimised CDS in pET16b, expressed in the plasma membrane of intact E. coli BL21 (DE3); HA tag in the IFA construct
T2 sequence (A0A7J6KCX5 1-413): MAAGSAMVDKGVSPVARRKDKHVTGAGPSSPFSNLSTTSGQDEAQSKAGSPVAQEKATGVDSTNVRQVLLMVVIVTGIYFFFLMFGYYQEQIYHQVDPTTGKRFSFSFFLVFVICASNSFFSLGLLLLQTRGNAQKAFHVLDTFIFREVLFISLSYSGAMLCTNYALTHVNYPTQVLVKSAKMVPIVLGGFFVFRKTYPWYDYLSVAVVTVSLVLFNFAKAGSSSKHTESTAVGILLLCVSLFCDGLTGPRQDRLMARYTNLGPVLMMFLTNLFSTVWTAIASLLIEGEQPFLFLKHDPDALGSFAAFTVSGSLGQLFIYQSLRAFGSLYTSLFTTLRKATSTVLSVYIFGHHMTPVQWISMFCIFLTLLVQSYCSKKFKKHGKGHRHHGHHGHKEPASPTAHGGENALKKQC
Excerpt: inhibition of [α-32P]ATP uptake into intact E. coli cells on TgANT

SMILES | Uptake(% of control) (PfANT) | Uptake(% of control) (TgANT)
Nc1ncnc2c1ncn2[C@@H]1O[C@H](COP(=O)(O)OP(=O)(O)O)[C@@H](O)[C@H]1O [ADP] | 28.9 ±3.8 % of control | 3.9 ±0.31 % of control
Nc1ncnc2c1ncn2[C@@H]1O[C@H](COP(=O)(O)OP(=O)(O)OP(=O)(O)O)[C@@H](O)[C@H]1O [ATP] | 23.8 ±1.4 % of control | 3.4 ±0.25 % of control
